Source: ChEMBL document CHEMBL4651402, “Screening of ~5500 FDA-approved drugs and clinical candidates for anti-SARS-CoV-2 activity” (2021)

Test system: SARS-CoV-2
Experiment: microbe, parasite or virus in culture
Settings: Severe acute respiratory syndrome coronavirus 2, Vero C1008, 48 h

SMILES	IC50	IC50 (read-out: pIC50 (converted))
CCC(C(=O)OCCN(CC)CC)c1ccccc1 (centres undefined) [BUTETAMATE]	> 20 µM	> 20 µM
CCCCS(=N)(=O)CCC(N)C(=O)O (centres undefined) [BUTHIONINE SULFOXIMINE]	> 20 µM	> 20 µM
Clc1ccc(CCC(Cn2ccnc2)Sc2c(Cl)cccc2Cl)cc1 (centres undefined) [BUTOCONAZOLE]	> 20 µM	> 20 µM
CCCC(=O)c1cc(F)ccc1OCC(O)CNC(C)(C)C (centres undefined) [BUTOFILOLOL]	> 20 µM	> 20 µM
Oc1ccc2c(c1)[C@@]13CCCC[C@@]1(O)[C@@H](C2)N(CC1CCC1)CC3 [BUTORPHANOL]	> 20 µM	> 20 µM
COc1ccc(OC)c(C(O)C(C)NC(C)(C)C)c1 (centres undefined) [BUTOXAMINE]	> 20 µM	> 20 µM
CC(CC1c2ccccc2CCc2ccccc21)CN(C)C (centres undefined) [BUTRIPTYLINE]	> 20 µM	> 20 µM
CCCCOC(=O)c1ccc(O)cc1 [BUTYLPARABEN]	> 20 µM	> 20 µM
CCCC[N+]1(C)[C@@H]2C[C@@H](OC(=O)[C@H](CO)c3ccccc3)C[C@H]1[C@@H]1O[C@@H]12 (some centres undefined) [BUTYLSCOPOLAMINE]	> 20 µM	> 20 µM
CCCC(=O)O [BUTYRIC ACID]	> 20 µM	> 20 µM
O=C1CCCO1 [BUTYROLACTONE]	> 20 µM	> 20 µM
C[N+]1(CCC(C(N)=O)(c2ccccc2)c2ccccc2)CCCCCC1 [BUZEPIDE]	> 20 µM	> 20 µM
C[C@@H]1CN(Cc2ccc(F)cc2)CCN1C(=O)COc1ccc(Cl)cc1NC(N)=O [BX 471 FREE BASE]	> 20 µM	> 20 µM
COc1cc2nccc(Oc3ccc(NC(=O)C4(C(=O)Nc5ccc(F)cc5)CC4)cc3)c2cc1OC [CABOZANTINIB]	> 20 µM	> 20 µM
O=C(O)c1cn(C2CC2)c2cc(N3CCC(O)(COc4ccc(N5C[C@H](CO)OC5=O)cc4F)CC3)c(F)cc2c1=O [CADAZOLID]	> 20 µM	> 20 µM
CC(=O)OC[C@@]1(O)C[C@@]23CC[C@@H]4c5ccoc5CC[C@@]4(C)[C@@H]2CC[C@@H]1C3 [CAFESTOL ACETATE]	> 20 µM	> 20 µM
C=C1/C(=C\C=C2/CCC[C@]3(C)[C@@H]([C@H](C)/C=C/[C@@H](O)C4CC4)CC[C@@H]23)C[C@@H](O)C[C@@H]1O [CALCIPOTRIENE]	> 20 µM	> 20 µM
O=S(=O)(O)c1cc(O)ccc1O [CALCIUM DOBESILATE]	> 20 µM	> 20 µM
CC[C@@]1(O)C(=O)OCc2c1cc1n(c2=O)Cc2cc3ccccc3nc2-1 [CAMPTOTHECIN]	> 20 µM	> 20 µM
CCN(CC)CCNC(C(=O)OCCC(C)C)c1ccccc1 (centres undefined) [CAMYLOFIN]	> 20 µM	> 20 µM
Cc1ccc([C@@H]2O[C@H](CO)[C@@H](O)[C@H](O)[C@H]2O)cc1Cc1ccc(-c2ccc(F)cc2)s1 [CANAGLIFLOZIN ANHYDROUS]	> 20 µM	> 20 µM

SMILES	IC50	IC50 (read-out: pIC50 (converted))
NC(N)=NOCC[C@H](N)C(=O)O [CANAVANINE]	> 20 µM	> 20 µM
C=CC(=O)Nc1cc2c(Nc3ccc(F)c(Cl)c3)ncnc2cc1OCCCN1CCOCC1 [CANERTINIB]	> 20 µM	> 20 µM
C=C(C)[C@@H]1CCC(C)=C[C@H]1c1c(O)cc(CCCCC)cc1O [CANNABIDIOL]	> 20 µM	> 20 µM
C[C@]12CCC(=O)C=C1C=C[C@@H]1[C@@H]2CC[C@@]2(C)[C@H]1CC[C@@]21CCC(=O)O1 [CANRENONE]	> 20 µM	> 20 µM
C[C@@]12C(=O)OC(=O)[C@]1(C)[C@H]1CC[C@@H]2O1 [CANTHARIDIN]	> 20 µM	> 20 µM
CCCCCOC(=O)Nc1nc(=O)n([C@@H]2O[C@H](C)[C@@H](O)[C@H]2O)cc1F [CAPECITABINE]	> 20 µM	> 20 µM
NC1(C(=O)N[C@@H](CCO)c2ccc(Cl)cc2)CCN(c2nc[nH]c3nccc2-3)CC1 [CAPIVASERTIB]	> 20 µM	> 20 µM
CNC(=O)c1ccc(-c2cnc3ncc(Cc4ccc5ncccc5c4)n3n2)cc1F [CAPMATINIB]	> 20 µM	> 20 µM
COc1cc(C(=O)NCCCCCC(=O)O)cc(OC)c1OC [CAPOBENIC ACID]	> 20 µM	> 20 µM
CN1N=C2CCN(C(=O)[C@@H](COCc3ccccc3)NC(=O)C(C)(C)N)C[C@@]2(Cc2ccccc2)C1=O [CAPROMORELIN]	> 20 µM	> 20 µM
COc1cc(CNC(=O)CCCC/C=C/C(C)C)ccc1O [CAPSAICIN]	> 20 µM	> 20 µM
C[C@H](CS)C(=O)N1CCC[C@H]1C(=O)O [CAPTOPRIL]	> 20 µM	> 20 µM
COC(=O)N/N=C/c1c[n+]([O-])c2ccccc2[n+]1[O-] [CARBADOX]	> 20 µM	> 20 µM
NC(=O)N1c2ccccc2C2OC2c2ccccc21 (centres undefined) [CARBAMAZEPINE EPOXIDE]	> 20 µM	> 20 µM
NC(=O)N1c2ccccc2C=Cc2ccccc21 [CARBAMAZEPINE]	> 20 µM	> 20 µM
C[N+](C)(C)CCOC(N)=O [CARBAMOYLCHOLINE]	> 20 µM	> 20 µM
CNC(=O)Oc1cccc2ccccc12 [CARBARIL]	> 20 µM	> 20 µM
CCNC(=O)OC1CCN(c2nncc3cc(OC)c(OC)cc23)CC1 [CARBAZERAN]	> 20 µM	> 20 µM
CN1C2=CC(=O)/C(=N\NC(N)=O)C=C2CC1S(=O)(=O)O (centres undefined) [CARBAZOCHROME SULFONIC ACID]	> 20 µM	> 20 µM
CC1(C)[C@@H](OC(=O)CCC(=O)O)CC[C@]2(C)[C@H]3C(=O)C=C4[C@@H]5C[C@@](C)(C(=O)O)CC[C@]5(C)CC[C@@]4(C)[C@]3(C)CC[C@@H]12 [CARBENOXOLONE]	> 20 µM	> 20 µM
CCN(CC)CCOCCOC(=O)C1(c2ccccc2)CCCC1 [CARBETAPENTANE]	> 20 µM	> 20 µM

SMILES	IC50	IC50 (read-out: pIC50 (converted))
C[C@@](Cc1ccc(O)c(O)c1)(NN)C(=O)O [CARBIDOPA ANHYDROUS]	> 20 µM	> 20 µM
CCOC(=O)n1ccn(C)c1=S [CARBIMAZOLE]	> 20 µM	> 20 µM
CN(C)CCOC(c1ccc(Cl)cc1)c1ccccn1 (centres undefined) [CARBINOXAMINE]	> 20 µM	> 20 µM
CCOC(C(=O)N(C)CCN(C)CCc1ccccc1)(c1ccccc1)c1ccccc1 [CARBIPHENE]	> 20 µM	> 20 µM
CC1=C(C(=O)Nc2ccccc2)SCCO1 [CARBOXIN]	> 20 µM	> 20 µM
NC(=O)c1nnn(Cc2cc(Cl)c(C(=O)c3ccc(Cl)cc3)c(Cl)c2)c1N [CARBOXYAMIDOTRIAZOLE]	> 20 µM	> 20 µM
CCC(Br)(CC)C(=O)NC(N)=O [CARBROMAL]	> 20 µM	> 20 µM
CCCCNC(=O)NS(=O)(=O)c1ccc(N)cc1 [CARBUTAMIDE]	> 20 µM	> 20 µM
NCCC(=O)NCCc1c[nH]cn1 [CARCININE]	> 20 µM	> 20 µM
CC(C)C[C@H](NC(=O)[C@H](CCc1ccccc1)NC(=O)CN1CCOCC1)C(=O)N[C@@H](Cc1ccccc1)C(=O)N[C@@H](CC(C)C)C(=O)[C@@]1(C)CO1 [CARFILZOMIB]	> 20 µM	> 20 µM
CCCC(C)(COC(N)=O)COC(=O)NC(C)C (centres undefined) [CARISOPRODOL]	> 20 µM	> 20 µM
CCCCCCNC(=O)n1cc(F)c(=O)[nH]c1=O [CARMOFUR]	> 20 µM	> 20 µM
O=NN(CCCl)C(=O)NCCCl [CARMUSTINE]	> 20 µM	> 20 µM
COC(=S)NCCn1c([N+](=O)[O-])cnc1C [CARNIDAZOLE]	> 20 µM	> 20 µM
C[N+](C)(C)CC(O)CC(=O)[O-] (centres undefined) [CARNITINE]	> 20 µM	> 20 µM
NCCC(=O)N[C@@H](Cc1c[nH]cn1)C(=O)O [CARNOSINE]	> 20 µM	> 20 µM
NC(=O)CN1Cc2ccccc2OC1=O [CAROXAZONE]	> 20 µM	> 20 µM
CC(C(=O)O)c1ccc2c(c1)[nH]c1ccc(Cl)cc12 (centres undefined) [CARPROFEN]	> 20 µM	> 20 µM
OC(CSc1ncnc2[nH]cnc12)CN1CCN(C(c2ccc(F)cc2)c2ccc(F)cc2)CC1 (centres undefined) [CARSATRIN]	> 20 µM	> 20 µM
CC(C)(C)NCC(O)COc1cccc2c1CCC(=O)N2 (centres undefined) [CARTEOLOL]	> 20 µM	> 20 µM
